Laboratory results as given in US20220162191A1, “SMALL MOLECULE MODULATORS OF IL-17” (LEO PHARMA A/S, priority 2019, published 2022).
Counter-ions that a name gives are not always drawn.

What follows are compounds tested against T1, human IL-17AA (Homo sapiens, UniProt Q16552) (assay: IL-8 release assay in human epithelial keratinocytes adult (HEKa)). Conditions: 3 ng/ml human IL-17AA + 10 ng/ml human TNFalpha, 68-72 h, IL-8 by HTRF, read-out: Rel EC50 L-8 release assay.
T1 construct: host or cells: HEK (human embryonic kidney) cells
T1 sequence (Q16552 24-155) 1: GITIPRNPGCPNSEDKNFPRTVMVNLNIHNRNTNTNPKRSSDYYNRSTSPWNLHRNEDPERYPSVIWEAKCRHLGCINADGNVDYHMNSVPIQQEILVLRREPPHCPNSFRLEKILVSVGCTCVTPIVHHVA
T1 sequence (Q16552 24-155) 2: T1 sequence (Q16552 24-155) 1
Type: cell-based
How it was run: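 Adult human keratinocytes in Epilife with HKGS minus hydrocortisone, treated with compound then stimulated with final 3 ng/ml HEK-derived human IL-17AA plus 10 ng/ml TNF-alpha for 68–72 h at 37 °C; TNF-alpha alone defines 100% inhibition. Secreted IL-8 by HTRF; relative IC50 and Emax from four-parameter fits.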

SMILES | EC50
C[C@H]1CN(c2cc(-c3ccc(Cl)c(C[C@H](NC(=O)c4ccnn4C)C(=O)Nc4ccc(-c5cncn5C)cc4)c3)ccn2)CCN1 [Example 209, N-[(1S)-1-[[2-chloro-5-[2-[(3S)-3-methylpiperazin-1-yl]-4-pyridyl]phenyl]methyl]-2-[4-(3-methylimidazol-4-yl)anilino]-2-oxo-ethyl]-2-methyl-pyrazole-3-carboxamide] | 100 to 1000 nM
C[C@@H]1CN(c2cc(-c3ccc(Cl)c(C[C@H](NC(=O)c4ccnn4C)C(=O)Nc4ccc(-c5cncn5C)cc4)c3)ccn2)CCN1 [Example 210, N-[(1S)-1-[[2-chloro-5-[2-[(3R)-3-methylpiperazin-1-yl]-4-pyridyl]phenyl]methyl]-2-[4-(3-methylimidazol-4-yl)anilino]-2-oxo-ethyl]-2-methyl-pyrazole-3-carboxamide] | 100 to 1000 nM
Cc1ncn(C)c1-c1ccc(NC(=O)[C@H](Cc2cc(-c3ccnc(N4CCN(C)CC4)c3)ccc2Cl)NC(=O)OC2CC2)cc1 [Example 211, cyclopropyl N-[(1S)-1-[[2-chloro-5-[2-(4-methylpiperazin-1-yl)-4-pyridyl]phenyl]methyl]-2-[4-(3,5-dimethylimidazol-4-yl)anilino]-2-oxo-ethyl]carbamate] | 100 to 1000 nM
CC(C)Cn1cc(-c2ccc(Cl)c(C[C@H](NC(=O)c3ccnn3C)C(=O)Nc3ccc(-c4cncn4C)cc3)c2)nn1 [Example 212, N-[(1S)-1-[[2-chloro-5-(1-isobutyltriazol-4-yl)phenyl]methyl]-2-[4-(3-methylimidazol-4-yl)anilino]-2-oxo-ethyl]-2-methyl-pyrazole-3-carboxamide] | 100 to 1000 nM
Cc1ncn(C)c1-c1ccc(NC(=O)[C@H](Cc2cc(-c3ccnc(N4CCN(C)CC4)c3)ccc2Cl)NC(=O)c2ccnn2C)cc1 [Example 213, N-[(1S)-1-[[2-chloro-5-[2-(4-methylpiperazin-1-yl)-4-pyridyl]phenyl]methyl]-2-[4-(3,5-dimethylimidazol-4-yl)anilino]-2-oxo-ethyl]-2-methyl-pyrazole-3-carboxamide] | 100 to 1000 nM
CC(C)Cn1cc(-c2ccc(Cl)c(C[C@H](NC(=O)OC3CC3)C(=O)Nc3ccc(-c4cncn4C)cc3)c2)nn1 [Example 214, cyclopropyl N-[(1S)-1-[[2-chloro-5-(1-isobutyltriazol-4-yl)phenyl]methyl]-2-[4-(3-methylimidazol-4-yl)anilino]-2-oxo-ethyl]carbamate] | > 1000 nM
Cn1cncc1-c1ccc(NC(=O)[C@H](Cc2cc(-c3cccc([C@H]4COCCN4)c3)ccc2Cl)NC(=O)c2ccnn2C)cc1 [Example 215, N-[(1S)-1-[[2-chloro-5-[3-[(3S)-morpholin-3-yl]phenyl]phenyl]methyl]-2-[4-(3-methylimidazol-4-yl)anilino]-2-oxo-ethyl]-2-methyl-pyrazole-3-carboxamide] | 100 to 1000 nM
Cn1cncc1-c1ccc(NC(=O)[C@H](Cc2cc(-c3cccc([C@@H]4COCCN4)c3)ccc2Cl)NC(=O)c2ccnn2C)cc1 [Example 216, N-[(1S)-1-[[2-chloro-5-[3-[(3R)-morpholin-3-yl]phenyl]phenyl]methyl]-2-[4-(3-methylimidazol-4-yl)anilino]-2-oxo-ethyl]-2-methyl-pyrazole-3-carboxamide] | 100 to 1000 nM
CN1CCOC[C@@H]1c1cccc(-c2ccc(Cl)c(C[C@H](NC(=O)c3ccnn3C)C(=O)Nc3ccc(-c4cncn4C)cc3)c2)c1 [Example 217, N-[(1S)-1-[[2-chloro-5-[3-[(3S)-4-methylmorpholin-3-yl]phenyl]phenyl]methyl]-2-[4-(3-methylimidazol-4-yl)anilino]-2-oxo-ethyl]-2-methyl-pyrazole-3-carboxamide] | 100 to 1000 nM
CN1CCOC[C@H]1c1cccc(-c2ccc(Cl)c(C[C@H](NC(=O)c3ccnn3C)C(=O)Nc3ccc(-c4cncn4C)cc3)c2)c1 [Example 218, N-[(1S)-1-[[2-chloro-5-[3-[(3R)-4-methylmorpholin-3-yl]phenyl]phenyl]methyl]-2-[4-(3-methylimidazol-4-yl)anilino]-2-oxo-ethyl]-2-methyl-pyrazole-3-carboxamide] | 100 to 1000 nM
Cn1cncc1-c1ccc(NC(=O)[C@H](Cc2cc(-c3cccc(C4CNCCO4)c3)ccc2Cl)NC(=O)c2ccnn2C)cc1 (stereo partly drawn) [Example 219, N-[(1S)-1-[[2-chloro-5-(3-morpholin-2-ylphenyl)phenyl]methyl]-2-[4-(3-methylimidazol-4-yl)anilino]-2-oxo-ethyl]-2-methyl-pyrazole-3-carboxamide hydrochloride] | 100 to 1000 nM
Cn1cncc1-c1ccc(NC(=O)[C@H](Cc2cc(-c3cccc([C@H]4CNCCO4)c3)ccc2Cl)NC(=O)c2ccnn2C)cc1 [Example 220, N-[(1S)-1-[[2-chloro-5-[3-[(2S)-morpholin-2-yl]phenyl]phenyl]methyl]-2-[4-(3-methylimidazol-4-yl)anilino]-2-oxo-ethyl]-2-methyl-pyrazole-3-carboxamide] | 100 to 1000 nM
Cn1cncc1-c1ccc(NC(=O)[C@H](Cc2cc(-c3cccc([C@@H]4CNCCO4)c3)ccc2Cl)NC(=O)c2ccnn2C)cc1 [Example 221, N-[(1S)-1-[[2-chloro-5-[3-[(2R)-morpholin-2-yl]phenyl]phenyl]methyl]-2-[4-(3-methylimidazol-4-yl)anilino]-2-oxo-ethyl]-2-methyl-pyrazole-3-carboxamide] | 100 to 1000 nM
Cc1n[nH]c(C)c1-c1ccc(NC(=O)[C@H](Cc2cc(-c3ccnc(N4C[C@H]5C[C@@H]4CO5)c3)ccc2Cl)NC(=O)C2(F)CC2)cc1 [Example 222, N-[(1S)-1-[[2-chloro-5-[2-[(1R,4R)-2-oxa-5-azabicyclo[2.2.1]heptan-5-yl]-4-pyridyl]phenyl]methyl]-2-[4-(3,5-dimethyl-1H-pyrazol-4-yl)anilino]-2-oxo-ethyl]-1-fluoro-cyclopropanecarboxamide] | < 100 nM
Cc1n[nH]c(C)c1-c1ccc(NC(=O)[C@H](Cc2cc(-c3ccnc(N4C[C@@H]5C[C@H]4CN5)c3)ccc2Cl)NC(=O)C2(F)CC2)cc1 [Example 223, N-[(1S)-1-[[2-chloro-5-[2-[(1S,4S)-2,5-diazabicyclo[2.2.1]heptan-2-yl]-4-pyridyl]phenyl]methyl]-2-[4-(3,5-dimethyl-1H-pyrazol-4-yl)anilino]-2-oxo-ethyl]-1-fluoro-cyclopropanecarboxamide] | < 100 nM
Cc1ncn(C)c1-c1ccc(NC(=O)[C@H](Cc2cc(-c3ccnc(N4CCOCC4)c3)ccc2Cl)NC(=O)C2(F)CC2)cc1 [Example 224, N-[(1S)-1-[[2-chloro-5-(2-morpholino-4-pyridyl)phenyl]methyl]-2-[4-(3,5-dimethylimidazol-4-yl)anilino]-2-oxo-ethyl]-1-fluoro-cyclopropanecarboxamide] | < 100 nM
Cc1n[nH]c(C)c1-c1ccc(NC(=O)[C@H](Cc2cc(-c3ccnc(N4CCOCC4)c3)ccc2Cl)NC(=O)C2(F)CC2)cc1 [Example 225, N-[(1S)-1-[[2-chloro-5-(2-morpholino-4-pyridyl)phenyl]methyl]-2-[4-(3,5-dimethyl-1H-pyrazol-4-yl)anilino]-2-oxo-ethyl]-1-fluoro-cyclopropanecarboxamide] | < 100 nM
Cc1n[nH]c(C)c1-c1ccc(NC(=O)[C@H](Cc2cc(-c3ccnn3C3CCC3)ccc2Cl)NC(=O)C2(F)CC2)cc1 [Example 226, N-[(1S)-1-[[2-chloro-5-(2-cyclobutylpyrazol-3-yl)phenyl]methyl]-2-[4-(3,5-dimethyl-1H-pyrazol-4-yl)anilino]-2-oxo-ethyl]-1-fluoro-cyclopropanecarboxamide] | 100 to 1000 nM
Cc1n[nH]c(C)c1-c1ccc(NC(=O)[C@H](Cc2cc(-c3cnn(C)c3C)ccc2Cl)NC(=O)C2(F)CC2)cc1 [Example 227, N-[(1S)-1-[[2-chloro-5-(1,5-dimethylpyrazol-4-yl)phenyl]methyl]-2-[4-(3,5-dimethyl-1H-pyrazol-4-yl)anilino]-2-oxo-ethyl]-1-fluoro-cyclopropanecarboxamide] | 100 to 1000 nM
Cc1n[nH]c(C)c1-c1ccc(NC(=O)[C@H](Cc2cc(-c3ccc(CN4C[C@H]5C[C@@H]4CO5)cc3)ccc2Cl)NC(=O)C2(F)CC2)cc1 [Example 228, N-[(1S)-1-[[2-chloro-5-[4-[[(1R,4R)-2-oxa-5-azabicyclo[2.2.1]heptan-5-yl]methyl]phenyl]phenyl]methyl]-2-[4-(3,5-dimethyl-1H-pyrazol-4-yl)anilino]-2-oxo-ethyl]-1-fluoro-cyclopropanecarboxamide] | 100 to 1000 nM
Cc1n[nH]c(C)c1-c1ccc(NC(=O)[C@H](Cc2cc(-c3ccc(CN4C[C@@H]5C[C@H]4CN5)cc3)ccc2Cl)NC(=O)C2(F)CC2)cc1 [Example 229, N-[(1S)-1-[[2-chloro-5-[4-[[(1S,4S)-2,5-diazabicyclo[2.2.1]heptan-2-yl]methyl]phenyl]phenyl]methyl]-2-[4-(3,5-dimethyl-1H-pyrazol-4-yl)anilino]-2-oxo-ethyl]-1-fluoro-cyclopropanecarboxamide] | 100 to 1000 nM
CC(C)n1cc(-c2ccc(Cl)c(C[C@H](NC(=O)C(C)(C)F)C(=O)Nc3ccc(-c4nncn4C)cc3)c2)ccc1=O [Example 282, N-[(1S)-1-[[2-chloro-5-(1-isopropyl-6-oxo-3-pyridyl)phenyl]methyl]-2-[4-(4-methyl-1,2,4-triazol-3-yl)anilino]-2-oxo-ethyl]-2-fluoro-2-methyl-propanamide] | > 1000 nM
CC(C)n1cc(-c2ccc(Cl)c(C[C@H](NC(=O)C(C)(F)F)C(=O)Nc3ccc(-c4nncn4C)cc3)c2)ccc1=O [Example 283, N-[(1S)-1-[[2-chloro-5-(1-isopropyl-6-oxo-3-pyridyl)phenyl]methyl]-2-[4-(4-methyl-1,2,4-triazol-3-yl)anilino]-2-oxo-ethyl]-2,2-difluoro-propanamide] | > 1000 nM
